Data published in publication PMC6832649, “Sa12b Peptide from Solitary Wasp Inhibits ASIC Currents in Rat Dorsal Root Ganglion Neurons” (Toxins, 2019).
“Also recorded” adds a separate entry of the source. Where no end group is shown, it is not given here.

What was measured:
[1] = test system: rASIC3; design: method as in PMID 15044953; conditions: ref [34]; read-out: IC50, homomeric rASIC3; cited from earlier work
[2] = test system: hASIC3; design: method as in PMID 15044953; conditions: ref [34]; cited from earlier work
[3] = pH not stated for this peptide; ref [37]; cited from earlier work
Source text: RFa-related peptides have an NH2 group which is positively charged at pH 5 to 8 [21]. The effects of Sh5b could be due to the positive charge given by its amine group. Other inhibitors of ASICs, such as the PhcrTx1 peptide, which at pH 7.4 has a net charge of +5.03, APETx2 (net charge = +2.00), and PcTx1 (net charge = +3) also have that particularity. Aminoglycosides are also positively-charged ASICs modulators.

[4] = test system: ASIC currents; conditions: 10 μM stated to be close to the EC50 of FMRFa; no reference given; cited from earlier work
Procedure: The peptide was initially tested at 10 μM, this concentration was used because it is close to the EC50 of FMRFa. With application of 10 µM Sa12b in preincubation form (20 s before and 5 s during acid pulse), Sa12b inhibited ASIC currents 92.7 ± 7.3% (p < 0.05 paired Student’s t-test, n = 5) (Figure 2A).

[5] = test system: ASIC1a; conditions: ref [38]; cited from earlier work
[6] = test system: ASIC1b; conditions: ref [9]; read-out: EC50, agonist of ASIC1b; cited from earlier work
[7] = target: Acid-Sensing Ion Channels (ASIC) of rat dorsal root ganglion neurons
[8] = test system: ASIC currents in rat dorsal root ganglion (DRG) neurons; test: ASIC currents in DRG neurons, whole-cell voltage clamp; type: cell-based, Long-Evans CII rat (P7-P10)
Procedure: To study the effect of Sa12b and Sh5b on ASIC, DRG neurons were obtained from Long-Evans CII / ZV rats of 7 to 10 days of postnatal age, of either sex. Animals were provided by the laboratory animal facility ‘Claude Bernard’ of the Autonomous University of Puebla. The study was performed in accordance with the recommendations in the Guiding Principles in the Care and Use of Vertebrate Animals in Research and Training of the American Physiological Society, and with the regulations of the NOM-062-ZOO-1999 of the Mexican Ministry of Agriculture, Stockbreeding, Rural Development, Fishing and Food. The protocol was reviewed and approved by the Institutional Committee for Animal Care and Use (IACUC) of the Autonomous University of Puebla (VIEP-BUAP) on 17 July 2017. The ethical approval code is SOEE-UALVIEP-17-1. All efforts were made to minimize animal suffering and to reduce the number of animals used. DRG neurons were isolated and maintained in primary culture according to the methodology described previously. The dissection and cell culture were performed within a level I biosafety laminar flow hood (Nuaire, Plymouth, MN, USA). Rats were anesthetized with sevoflurane and sacrificed by decapitation. Subsequently, the rat was placed in prone position to make a longitudinal incision through the vertebral bodies removing the spinal cord. Dorsal root ganglia were isolated (approximately 12 to 18 per rat) using conventional dissection under a stereoscopic microscope (American Optical, Southbridge, MA, USA). Once extracted, DRG neurons were placed in a disposable sterile centrifuge tube (Corning, Corning, NY, USA), in which they were incubated for 30 min at 37 °C in Leibovitz L15 medium (L15) (Invitrogen, Waltham, MA, USA), added with 1.25 mg/mL of trypsin and 1.25 mg/mL of collagenase (both from Sigma-Aldrich, St. Louis, MO, USA) for an enzymatic dissociation.
After the enzymatic treatment, the ganglia were washed 3 times with 100% L15 medium; after each wash, the cells were subjected to mechanical dissociation using glass three-gauge Pasteur pipettes; between each wash, a cell pellet was formed using a centrifuge at 5000 rpm. After the third wash, once the cell pellet was formed, the supernatant was discarded, and the cell suspension was placed in a 35 mm culture dish (Corning) on 12 × 10 mm glass plates (Corning) previously treated with poly-D-lysine (Sigma-Aldrich, St. Louis, MO, USA).
Dissociated neurons were incubated for a period of time ranging from 2 to 8 h in a humidified atmosphere ([…], 5% CO2, at 37 °C) using a water-jacketed CO2 incubator (Nuaire, Plymouth, MN, USA) allowing for settlement and adhesion of isolated cells to the glass plates. The cells were cultured in modified L15 medium, supplemented with 10% fetal bovine serum (Gibco, Waltham, MA, USA), 100 IU penicillin (Lakeside, Hayward, CA USA), fungizone 2.5 μL/mL (Gibco), NaHCO3 15.7 mM (J.T. Baker, Radnor DE, USA) and 15.8 mM HEPES (Sigma-Aldrich, St. Louis, MO, USA).
After an incubation period of 2 to 8 h, the recording of ASIC currents in DRG neurons was performed. Cells were transferred to a recording chamber mounted in a phase-contrast inverted microscope (TMS, Nikon Co. Tokyo, Japan).
The recording chamber was constantly perfused with extracellular solution (Table 3). Recordings were performed in whole-cell voltage-clamp mode using an Axopatch 1D amplifier (Molecular Devices, Union City, CA, USA). Data collection and generation of commands for the perfusion change were carried out by the pClamp 9.2 (Molecular Devices) software in a 16-bit data acquisition system (Digidata 1320, Molecular Devices). […] The signals were digitized at 5 kHz. The series resistance was electronically compensated at 80%. Throughout the recording, access resistance and seal quality were monitored to ensure stable recording conditions.
Proton-gated currents were obtained with a holding potential of −60 mV. […]

[9] = target: Acid-Sensing Ion Channels (ASIC) of rat dorsal root ganglion neurons; remark: listed apart in the source
[10] = Sh5b 100 nM, co-application, mean ± E.S., n = 5
[11] = Sh5b 100 nM, preincubation, mean ± E.S., n = 9
[12] = Sh5b 100 nM, preincubation, single recording, Figure 6A
[13] = Sh5b 1 µM, preincubation, single recording, Figure 6B
[14] = Sh5b 3 µM, co-application, single recording, Figure 5A
[15] = Sh5b 10 µM, co-application, mean ± E.S., n = 9
[16] = Sh5b 10 µM, co-application, single recording, Figure 5B
[17] = Sh5b 10 µM, preincubation, mean ± E.S., n = 12
[18] = Sh5b 10 µM, preincubation, single recording, Figure 6C
[19] = Sh5b 30 µM, co-application, mean ± E.S., n = 6
[20] = Sh5b 30 µM, co-application, single recording, Figure 5C

APETx2
IC50 [1]: 37 to 63 nM
IC50 [2]: ~175 nM
net charge [3]: +2.00

Phe-Met-Arg-Phe amide [FMRFa, abundant tetrapeptide in invertebrate nervous systems, neurotransmitter and neuromodulator]
EC50 [4]: ~10000 nM

PcTx1
IC50 [5]: 1 nM
EC50 [6]: ~100 nM
net charge [3]: +3

Sa12b peptide
percent decrease of the ASIC I peak at pH 6.1, Sa12b by preincubation, 30 nM to 10 µM (highest at 1 µM), whole-cell voltage clamp of rat DRG neurons [7]: 98 % I_(peak)

DVDHVFLRF-NH2 [Sh5b]
effect on analyzed parameters of ASIC current ([8]; Sh5b 100 nM, co-application, n = 5): no consistent concentration-dependent effects
% ISS change (increase 🡹) [8, 10]: 🡹 85 ± 74%
% Ipeak change (decrease 🡻) [8, 10]: 🡻2 ± 4%
% Ƭdes change (decrease 🡻) [8, 10]: 🡻 1 ± 2%
effect on analyzed parameters ([8]; Sh5b 100 nM, preincubation, n = 9): no effect
% ISS change (increase 🡹) [8, 11]: 🡹 53 ± 38%
% Ipeak change (decrease 🡻) [8, 11]: 🡻0.5 ± 6%
% Ƭdes change (increase 🡹) [8, 11]: 🡹 13 ± 15%
change in Ƭdes [8, 12]: no change
increase of ISS [8, 12]: 3%
increase of Ipeak [8, 12]: 1%
% Ƭdes change (increase 🡹) ([8]; Sh5b 1 µM, preincubation, mean ± E.S., n = 5): 🡹 3 ± 5%
inhibition of ISS [8, 13]: 5%
inhibition of Ipeak [8, 13]: 1%
% Ipeak change (decrease 🡻) ([8]; Sh5b 3 µM, co-application, mean ± E.S., n = 12): 🡻6 ± 3%
increase of ISS [8, 14]: 30%
reduction of Ipeak [8, 14]: 9.6%
overall change of Ipeak ([8]; Sh5b 10 µM, co-application, increase in some cells, decrease in others): non-significant
% ISS change (increase 🡹) [8, 15]: 🡹 1 ± 11%
% Ƭdes change (decrease 🡻) [8, 15]: 🡻 10 ± 5%
% Ipeak change (increase 🡹) ([8]; Sh5b 10 µM, co-application, mean ± E.S., n = 9, non-significant): 🡹17 ± 15%
increase of ISS [8, 16]: 14.6%
increase of Ipeak [8, 16]: 44.6%
effect on studied parameters ([8]; Sh5b 10 µM, preincubation, n = 12): did not produced significant effects
% ISS change (decrease 🡻) [8, 17]: 🡻 8 ± 15%
% Ipeak change (decrease 🡻) [8, 17]: 🡻11 ± 4%
% Ƭdes change (decrease 🡻) [8, 17]: 🡻 5 ± 4%
change in Ƭdes [8, 18]: no change
increase of ISS [8, 18]: 26%
inhibition of Ipeak [8, 18]: 18%
ISS amplitude ([8]; Sh5b 30 µM, co-application, from 79 pA before peptide, single recording, Figure 5C): 159 pA
% Ipeak change (decrease 🡻) [8, 19]: 🡻1 ± 6%
% Ƭdes change (increase 🡹) [8, 19]: 🡹 9 ± 5%
increase of ISS [8, 20]: 102%
inhibition of Ipeak [8, 20]: 3.8%
overall effect on ASIC currents ([8]; Sh5b, both application protocols): did not show consistent results having both excitatory and inhibitory effects on the maximum ASIC currents; also recorded: did not produce consistent, reproducible, effects
concentration dependence of effects on ASIC current ([8]; Sh5b, co-application, 100 nM-30 µM): not dependent on concentration
effect on ISS/Ipeak relationship ([8]; Sh5b, co-application, overall): tendency towards the increase
effect on Ƭdes ([8]; Sh5b, co-application, overall): did not show noticeable differences
effect on ISS component ([8]; Sh5b, overall, preincubation): increased slightly
effect on ISS/Ipeak relationship ([8]; Sh5b, preincubation, overall): also increased
effect on current peak ([8]; Sh5b, preincubation, overall): tendency to inhibit the current peak
effect on Ƭdes and integral of the current ([8]; Sh5b, preincubation, overall): no consistent changes
reversibility of effect on ASIC current ([8]; after 1 min washout): reversed by 1 min peptide washout

B1: Sh5b peptide (peptide)
peptide: DVDHVFLRF-NH2
percent decrease of the ASIC I peak at pH 6.1, Sh5b by preincubation, 100 nM to 10 µM (largest at 10 µM; not significant), whole-cell voltage clamp of rat DRG neurons [9]: 11 % I_(peak)
